Data reported in patent US6479460B1, “Synthetic peptides and pseudopeptides having osteogenic activity and pharmaceutical compositions containing the same” (Yissum Research Development Company of the Hebrew …, priority 1996, dated 2002).
Where no end group is shown, it is not given here. [ ]: non-standard residue; d: D form. The star is where a group is joined. Biotin = O=C1N[C@H]2[C@H](CS[C@H]2CCCCC(=O)*)N1; Bpa = N[C@@H](Cc1ccc(C(=O)c2ccccc2)cc1)C(=O)O; ol = C-terminal alcohol (reduced C-terminus); Tyr(3-I) = N[C@@H](Cc1ccc(O)c(I)c1)C(=O)O; Desaminotyrosyl = O=C(CCc1ccc(O)cc1)*; Hexanoyl = CCCCCC(=O)*; NHCH2CH2OMe = COCCN*; GABA = NCCCC(=O)O; βAla = NCCC(=O)O; Sar = CNCC(=O)O

Key:
Type in all cases: cell-based
[1] = test system: osteoblastic MC3T3 E1 and fibroblastic NIH 3T3 cells; test: Proliferation assay, text statements not split by cell line; conditions: in vitro, compared to OGP(1-14) or parent analog
Description: The effect of OGP analogs on osteoblastic MC3T3 E1 and fibroblastic NIH 3T3 cell proliferation was measured as before [Bab, I., et al (1992) EMBO J. 11:1867]. Some of the analogs were subjected to a dose response analysis. Otherwise the analog concentration was 10^−13M and 10^−11M in the MC3T3 E1 and NIH3T3 cell cultures, respectively. The mean cell number in triplicate culture wells was expressed as percent of a positive control triplicate dosed with OGP(1-14) (SEQ ID NO: 1). Experiments testing one dose per cell line were repeated at least four times and the activity of individual analogs expressed as the mean of results and 95% confidence limit obtained in these repetitive experiments.

[2] = test system: fibroblastic NIH 3T3 cells; test: Proliferation assay, fibroblastic NIH 3T3 cells; conditions: for Relative in vitro potency (95% confidence limit) NIH 3T3 cells: analog concentration 10^−11M, mean cell number relative to positive control OGP(1-14) = 1.00
Text: (§1) Some of the analogs were subjected to a dose response analysis.

[3] = test system: osteoblastic MC3T3 E1 cells; test: Proliferation assay, osteoblastic MC3T3 E1 cells; conditions: for Relative in vitro potency (95% confidence limit) MC3T3 E1 cells: analog concentration 10^−13M, mean cell number relative to positive control OGP(1-14) = 1.00
Text: as §1

Row | Substance | OGP-like proliferative activity (in words) [1] | Relative in vitro potency (95% confidence limit) NIH 3T3 cells [2] | Relative in vitro potency (95% confidence limit) MC3T3 E1 cells [3] | OGP-like proliferative activity (in words) ([1]; listed as Table 5, analog 2) | OGP-like proliferative activity (in words) ([1]; listed as c[D-Tyr-Gly-D-Phe-Gly-Gly]) | activity compared to OGP(1-14) ([2]; NIH3T3 cells) | activity compared to OGP(1-14) ([3]; MC3T3 E1 cells)
1 | Nα-Ac—OGP(12-14) (Ac-Phe-Gly-Gly) | essentially nil | 0.07 | 0.06 |  |  |  | 
2 | Nα-biotinylcaproyl[Bpa^12]OGP(10-14) ({Biotin-Hexanoyl}-YG[Bpa]GG) [Nα-biotinylcaproyl-[BPA^12]OGP(10-14)] | remained unaltered |  |  |  |  |  | 
3 | Tyr(m-I)-Gly-NH-CH(CH2C6H4(C(O)C6H5))C(O)-Gly-Gly ([Tyr(3-I)]G[Bpa]GG) [[Tyr^10(m-I),BPA^12]OGP(10-14)] | remained unaltered | 0.85 | 0.80 |  |  |  | 
4 | Tyr-Gly-NH-CH(CH2C6H4(C(O)-C6H5))C(O)-Gly-Gly (YG[Bpa]GG) [[Bpa^12]OGP(10-14)] | only a minor effect on the OGP-like proliferative activity | 0.86 | 0.74 |  |  |  | 
5 | [Ala^11]OGP(11-14) (AFGG) | essentially nil | 0.07 | 0.17 |  |  |  | 
6 | [Gly^13ψ(CH2)2Gly^14]OGP(11-14) (GFGG; also: reduced ethylene bond ψ(CH2)2 between Gly13 and Gly14) | essentially nil | 0.08 | 0.15 |  |  |  | 
7 | [Pro^11]OGP(10-14) (YPFGG) |  | 0.96 | 0.89 | remained essentially unaltered |  |  | 
8 | c(Gly-Gly-Phe-Gly-Tyr) (GGFGY; cyclic) | preserved or slightly improved its in vitro activity | 1.02 | 0.95 |  |  |  | 
9 | c(β-Ala-Tyr-Gly-Phe-Gly-Asp)-OH ([βAla]YGFGD-OH; lactam (positions not given here); also: cyclic, closure site not given here) [c(β-Ma-Tyr-Gly-Phe-Gly-Asp)-OH] | essentially nil | -0.19 | −0.08 |  |  |  | 
10 | c(γ-Abu-Tyr-Gly-Phe-Gly-Asp)-OH ([GABA]YGFGD-OH; lactam (positions not given here); also: cyclic, closure site not given here) | essentially nil | 0.07 | 0.13 |  |  |  | 
11 | cyclo(GG[dF]G[dY]) | preserved or slightly improved its in vitro activity | 1.16 | 1.03 |  |  |  | 
12 | cyclo([dY]G[dF]GG) | retained a considerable level of proliferative activity | 0.84 | 0.69 |  | considerable level of proliferative activity |  | 
13 | desamino[Tyr^10,D-Ala^12]OGP(10-14) |  | 0.02 | 0.30 |  |  |  | 
14 | desamino[Tyr^10,D-Ala^13]OGP(10-14) |  | 0.23 | 0.28 |  |  |  | 
15 | desamino[Tyr^10,D-Ala^14]OGP(10-14) |  | 0.32 | 0.41 |  |  |  | 
16 | desamino[Tyr^10,Sar^11]OGP(10-14) [desamino[Tyr^10,Sar^11]OGP(10-14) (SEQ ID NO: 31)] ([Desaminotyrosyl][Sar]FGG) |  | 0.39 | 0.31 |  |  |  | 
17 | desamino[Tyr^10,Sar^11]OGP(10-14) [desamino[Tyr^10,Sar^11]OGP(10-14) (SEQ ID NO: 34)] |  | 0.14) | 0.16 |  |  |  | 
18 | desamino[Tyr^10,Sar^13]OGP(10-14) ([Desaminotyrosyl]GF[Sar]G) |  | 0.11 | 0.15 |  |  |  | 
19 | desamino[Tyr^10]OGP(10-13)—NH(CH2)2NH2 ([Desaminotyrosyl]GFG-{NH(CH2)2NH2}) |  | 0.17 | 0.18 |  |  |  | 
20 | desamino[Tyr^10]OGP(10-13)—NH(CH2)2OMe ([Desaminotyrosyl]GFG-NHCH2CH2OMe; SMILES COCCNC(=O)CNC(=O)[C@H](Cc1ccccc1)NC(=O)CNC(=O)CCc1ccc(O)cc1) | essentially nil | 0.06 | 0.03 |  |  |  | 
21 | desamino[Tyr^10]OGP(10-13)—NHEt ([Desaminotyrosyl]GFG-NHEt; SMILES CCNC(=O)CNC(=O)[C@H](Cc1ccccc1)NC(=O)CNC(=O)CCc1ccc(O)cc1) |  | 0.20 | 0.19 |  |  |  | 
22 | desamino[Tyr^10]OGP(10-14)—N(Me)2 ([Desaminotyrosyl]GFGG-{N(Me)2}) |  | 0.16 | 0.12 |  |  |  | 
23 | desamino[Tyr^10]OGP(10-14)—NH2 ([Desaminotyrosyl]GFGG-NH2; SMILES NC(=O)CNC(=O)CNC(=O)[C@H](Cc1ccccc1)NC(=O)CNC(=O)CCc1ccc(O)cc1) |  | 0.16 | 0.20 |  |  |  | 
24 | desamino[Tyr^10]OGP(10-14)—NHMe ([Desaminotyrosyl]GFGG-NHMe; SMILES CNC(=O)CNC(=O)CNC(=O)[C@H](Cc1ccccc1)NC(=O)CNC(=O)CCc1ccc(O)cc1) |  | 0.16 | 0.18 |  |  |  | 
25 | desamino[Tyr^10]OGP(10-14)—OMe ([Desaminotyrosyl]GFGG-OMe; SMILES COC(=O)CNC(=O)CNC(=O)[C@H](Cc1ccccc1)NC(=O)CNC(=O)CCc1ccc(O)cc1) |  | 0.36 | 0.51 |  |  | less than 50% | higher than 50%
26 | desamino[Tyr^10]OGP(10-14)—ol ([Desaminotyrosyl]GFGG-ol) |  | 0.28 | 0.24 |  |  |  | 
